Test results from US7645758B2, “Heterocyclic compounds” (Janssen Pharmaceutica, N.Y., priority 2002, dated 2010).
pKi: −log10 of the molar value. Read-outs that look alike come from different tables or passages of the source. Values belong to the compound of their own block, whether it stands above or below them.

Legend:
[1] = test system: Mast cells; test: Mast cell chemotaxis assay; type: cell-based; details: 10 μM Histamine
Protocol: Mast Cell Chemotaxis Assay
Mast cell accumulation in mucosal epithelia is a well-known characteristic of allergic rhinitis and asthma. Transwells (Costar, Cambridge, Mass.) of a pore size 8 μm were coated with 100 μL of 100 ng/mL human fibronectin (Sigma) for 2 h at room temperature. […] Mast cells (2×10^5/well) were added to the top chamber. The plates were incubated for 3 h at 37° C. Transwells were removed and the cells in the bottom chamber were counted for sixty seconds using a flow cytometer.

[2] = target: T1, human histamine H4 receptor (Homo sapiens, UniProt Q9H3N8); test: Binding assay on recombinant human histamine H4 receptor
T1 construct: expressed in transfected cells; host or cells: SK-N-MC or COS7 cells, transiently transfected with pH4R; cell membranes

[3] = test system: human eosinophils; test: Inhibition of eosinophil shape change (GAFS); type: cell-based; details: for effect on histamine-induced shape change: H1 or H2 specific antagonist
Protocol: Eosinophil accumulation in sites of allergic reaction is a well-known characteristic of allergic rhinitis and asthma. […] Shape change is a cellular characteristic that precedes eosinophil chemotaxis.
Human granulocytes were isolated from human blood by a Ficoll gradient. The red blood cells were lysed with 5-10× Qiagen lysis buffer at room temperature for 5-7 min. Granulocytes were harvested and washed once with FACS buffer. The cells were resuspended at a density of 2×10^6 cells/mL in reaction buffer. […] Ten minutes later the cells were transferred to ice and fixed with 250 μL of ice-cold fixative buffer (2% formaldehyde) for 1 min.

[4] = 3H-histamine competition, membranes of SK-N-MC or COS7 cells expressing human H4, read-out: Ki
[5] = repeated in the chemotaxis table, read-out: Binding Assay Ki
[6] = Histamine 0 μM, 10 μM HR antagonist
[7] = Histamine 0.01 μM, 10 μM HR antagonist
[8] = Histamine 0.1 μM, 10 μM HR antagonist
[9] = Histamine 1 μM, 10 μM HR antagonist
[10] = Histamine 10 μM, 10 μM HR antagonist

Structure (SMILES): NCCc1c[nH]cn1 [Histamine, histamine]
Fold Change ([3]; Histamine 0.01 μM, No HR Antagonist): 1.01
Fold Change ([3]; Histamine 0.1 μM, No HR Antagonist): 1.21
Fold Change ([3]; Histamine 1 μM, No HR Antagonist): 1.31
Fold Change ([3]; Histamine 10 μM, No HR Antagonist): 1.34
shape change in eosinophils ([3]; histamine alone): induces a dose-dependent shape change

Structure (SMILES): CNC(=C[N+](=O)[O-])NCCSCc1ccc(CN(C)C)o1 [ranatidine]
effect on histamine-induced shape change [3]: did not alter
Fold Change [3, 6]: 1.00
Fold Change [3, 7]: 1.04
Fold Change [3, 8]: 1.21
Fold Change [3, 9]: 1.49
Fold Change [3, 10]: 1.64

Structure (SMILES): CN1CCN(C(=O)c2cc3sc(Cl)cc3[nH]2)CC1 [Example 10, (2-Chloro-4H-thieno[3,2-b]pyrrol-5-yl)-(4-methyl-piperazin-1-yl)-methanone]
pKi [2, 4]: 7.40
pKi [2, 5]: 7.40

Structure (SMILES): CN1CCN(C(=O)c2cc3ccsc3[nH]2)CC1 [Example 1, (4-Methyl-piperazin-1-yl)-(6H-thieno[2,3-b]pyrrol-5-yl)-methanone]
pKi [2, 4]: 7.07

Structure (SMILES): CN1CCN(C(=O)c2cc3occc3[nH]2)CC1 [Example 6, (4H-Furo[3,2-b]pyrrol-5-yl)-(4-methyl-piperazin-1-yl)-methanone]
pKi [2, 4]: 6.08

Structure (SMILES): CN1CCN(C(=O)c2cc3scc(Br)c3[nH]2)CC1 [Example 12, (3-Bromo-4H-thieno[3,2-b]pyrrol-5-yl)-(4-methyl-piperazin-1-yl)-methanone]
pKi [2, 4]: 7.25

Structure (SMILES): O=C(c1cc2sc(Cl)cc2[nH]1)N1CCN2CCCC2C1 (stereo not shown) [Example 11, (2-Chloro-4H-thieno[3,2-b]pyrrol-5-yl)-(hexahydro-pyrrolo[1,2-a]pyrazin-2-yl)-methanone]
pKi [2, 4]: 6.15

Structure (SMILES): Cc1cc2[nH]c(C(=O)N3CCN(C)CC3)cc2o1 [Example 14, (2-Methyl-4H-furo[3,2-b]pyrrol-5-yl)-(4-methyl-piperazin-1-yl)-methanone]
pKi [2, 4]: 6.46

Structure (SMILES): Cc1csc2cc(C(=O)N3CCN(C)CC3)[nH]c12 [Example 13, (4-Methyl-piperazin-1-yl)-(3-methyl-4H-thieno[3,2-b]pyrrol-5-yl)-methanone]
% Inh ([1]; HR Antagonist 1 μM): 60%
pKi [2, 4]: 7.68
pKi [2, 5]: 7.68

Structure (SMILES): CC1CN(C(=O)c2cc3sccc3[nH]2)CCN1 (stereo not shown) [Example 9, (3-Methyl-piperazin-1-yl)-(4H-thieno[3,2-b]pyrrol-5-yl)-methanone]
pKi [2, 4]: 6.13

Structure (SMILES): CN1CCN(C(=O)c2cc3cc(Cl)sc3[nH]2)CC1 [Example 3, (2-Chloro-6H-thieno[2,3-b]pyrrol-5-yl)-(4-methyl-piperazin-1-yl)-methanone]
pKi [2, 4]: 7.60
pKi [2, 5]: 7.60

Structure (SMILES): O=C(c1cc2sccc2[nH]1)N1CCNCC1 [Example 8, Piperazin-1-yl-(4H-thieno[3,2-b]pyrrol-5-yl)-methanone]
pKi [2, 4]: 6.46

Structure (SMILES): O=C(c1cc2ccsc2[nH]1)N1CCN2CCCC2C1 (stereo not shown) [Example 2, (Hexahydro-pyrrolo[1,2-a]pyrazin-2-yl)-(6H-thieno[2,3-b]pyrrol-5-yl)-methanone]
pKi [2, 4]: 6.34

Structure (SMILES): CN(C)CCOC(c1ccccc1)c1ccccc1 [diphenhydramine]
effect on histamine-induced shape change [3]: did not alter
Fold Change [3, 6]: 1.00
Fold Change [3, 7]: 1.03
Fold Change [3, 8]: 1.18
Fold Change [3, 9]: 1.50
Fold Change [3, 10]: 1.63

Structure (SMILES): O=C(c1cc2cc(Cl)sc2[nH]1)N1CCNCC1 [Example 5, (2-Chloro-6H-thieno[2,3-b]pyrrol-5-yl)-piperazin-1-yl-methanone]
pKi [2, 4]: 7.25

Structure (SMILES): CN1CCN(C(=O)c2cc3sccc3[nH]2)CC1 [Example 7, (4-Methyl-piperazin-1-yl)-(4H-thieno[3,2-b]pyrrol-5-yl)-methanone]
pKi [2, 4]: 6.90

Structure (SMILES): O=C(c1cc2cc(Cl)sc2[nH]1)N1CCN2CCCC2C1 (stereo not shown) [Example 4, (2-Chloro-6H-thieno[2,3-b]pyrrol-5-yl)-(hexahydro-pyrrolo[1,2-a]pyrazin-2-yl)-methanone]
% Inh ([1]; HR Antagonist 1 μM): <5%
% Inh ([1]; HR Antagonist 10 μM): <5%
pKi [2, 4]: 6.75
pKi [2, 5]: 6.75

Continued, in another order:

pKi [2, 4]: 6.01
pKi [2, 5]: 6.01
Structure (SMILES): CC1CN(C(=O)c2cc3scc(Br)c3[nH]2)CCN1 (stereo not shown) [Example 20, (3-Bromo-4H-thieno[3,2-b]pyrrol-5-yl)-(3-methyl-piperazin-1-yl)-methanone]
% Inh ([1]; HR Antagonist 1 μM): <5%
% Inh ([1]; HR Antagonist 10 μM): <5%

pKi [2, 4]: 6.39
Structure (SMILES): O=C(c1cc2scc(Br)c2[nH]1)N1CCNCC1 [Example 19, (3-Bromo-4H-thieno[3,2-b]pyrrol-5-yl)-piperazin-1-yl-methanone]

pKi [2, 4]: 6.85
Structure (SMILES): Cc1oc2cc(C(=O)N3CCN(C)CC3)[nH]c2c1C [Example 15, (2,3-Dimethyl-4H-furo[3,2-b]pyrrol-5-yl)-(4-methyl-piperazin-1-yl)-methanone]

pKi [2, 4]: 6.11
Structure (SMILES): Cc1cc2[nH]c(C(=O)N3CCNCC3)cc2o1 [Example 18, (2-Methyl-4H-furo[3,2-b]pyrrol-5-yl)-piperazin-1-yl-methanone]

pKi [2, 4]: 7.52
Structure (SMILES): Cc1c(Cl)sc2cc(C(=O)N3CCNCC3)[nH]c12 [Example 24, (2-Chloro-3-methyl-4H-thieno[3,2-b]pyrrol-5-yl)-piperazin-1-yl-methanone]

pKi [2, 4]: 8.00
Structure (SMILES): CN1CCN(C(=O)c2cc3c(Cl)c(Cl)sc3[nH]2)CC1 [Example 17, (2,3-Dichloro-6H-thieno[2,3-b]pyrrol-5-yl)-(4-methyl-piperazin-1-yl)-methanone]

pKi [2, 4]: 8.30
Structure (SMILES): Cc1sc2cc(C(=O)N3CCN(C)CC3)[nH]c2c1C [Example 16, (2,3-Dimethyl-4H-thieno[3,2-b]pyrrol-5-yl)-(4-methyl-piperazin-1-yl)-methanone]

pKi [2, 4]: 6.79
Structure (SMILES): Cc1csc2cc(C(=O)N3CCNC(C)C3)[nH]c12 (stereo not shown) [Example 22, (3-Methyl-piperazin-1-yl)-(3-methyl-4H-thieno[3,2-b]pyrrol-5-yl)-methanone]

pKi [2, 4]: 8.52
Structure (SMILES): Cc1c(Cl)sc2cc(C(=O)N3CCN(C)CC3)[nH]c12 [Example 23, (2-Chloro-3-methyl-4H-thieno[3,2-b]pyrrol-5-yl)-(4-methyl-piperazin-1-yl)-methanone]

pKi [2, 4]: 8.26
Structure (SMILES): CN1CCN(C(=O)c2cc3sc(Cl)c(Cl)c3[nH]2)CC1 [Example 25, (2,3-Dichloro-4H-thieno[3,2-b]pyrrol-5-yl)-(4-methyl-piperazin-1-yl)-methanone]

pKi [2, 4]: 7.10
Structure (SMILES): Cc1csc2cc(C(=O)N3CCNCC3)[nH]c12 [Example 21, (3-Methyl-4H-thieno[3,2-b]pyrrol-5-yl)-piperazin-1-yl-methanone]
